ChEMBL document CHEMBL1142385, “Nitro as a novel zinc-binding group in the inhibition of carboxypeptidase A” (Bioorg Med Chem, 2008)

What follows are compounds tested against T1, Carboxypeptidase A1 (Homo sapiens, UniProt P15085) (assay: Inhibition of CPA).
T1 sequence (P15085 whole entry): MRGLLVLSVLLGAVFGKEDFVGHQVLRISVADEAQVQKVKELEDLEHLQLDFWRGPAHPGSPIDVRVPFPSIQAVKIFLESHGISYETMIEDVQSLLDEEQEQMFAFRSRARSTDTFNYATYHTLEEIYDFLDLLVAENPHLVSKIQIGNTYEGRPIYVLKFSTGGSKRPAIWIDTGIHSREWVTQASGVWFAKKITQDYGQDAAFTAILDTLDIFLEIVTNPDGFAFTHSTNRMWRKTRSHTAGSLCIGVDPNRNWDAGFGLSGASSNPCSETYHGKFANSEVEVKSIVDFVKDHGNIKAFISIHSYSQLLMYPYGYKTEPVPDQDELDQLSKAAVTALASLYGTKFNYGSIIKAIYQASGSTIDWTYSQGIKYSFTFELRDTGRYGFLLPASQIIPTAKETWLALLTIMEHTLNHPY

In order of falling Ki:
1. O=C(O)[C@@H](Cc1ccccc1)C[N+](=O)[O-]  68000 nM
2. C=CCC(C[N+](=O)[O-])C(=O)O (racemic)  62600 nM
3. CC(C)CC(C[N+](=O)[O-])C(=O)O (racemic)  2080 nM
4. O=C(O)C(Cc1ccccc1)C[N+](=O)[O-] (racemic)  790 nM
5. O=C(O)C[C@@H](Cc1ccccc1)C(=O)O  450 nM
